Test results: article PMC12203428, “Discovery of Clonixeril as a Sub-Femtomolar Modulator of the Human STING Receptor” (ACS Central Science, 2025)

Key:
[1] = biological target: T1, hSTING CTD (STING R232 variant) (Homo sapiens, UniProt Q86WV6, H232R); test: Microscale thermophoresis; assay type: binding; conditions: for Activity in MST assay: competition with 2′,3′-cGAMP
T1 construct: 6X-His tagged hSTING^WT, R232 variant, CTD protein was purchased; purchased Invivogen (USA) or Cayman Chemicals (USA)
T1 sequence (Q86WV6 153-340 H232R): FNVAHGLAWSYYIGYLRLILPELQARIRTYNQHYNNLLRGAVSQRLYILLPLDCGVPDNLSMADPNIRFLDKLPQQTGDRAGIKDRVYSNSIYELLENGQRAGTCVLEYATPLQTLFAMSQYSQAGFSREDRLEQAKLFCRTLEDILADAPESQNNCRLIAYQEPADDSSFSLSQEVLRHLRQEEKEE
Procedure: Small molecule affinities at subpicomolar concentrations are typically difficult to determine by MST due to the inability of the detector to measure differential movement of proteins when largely disproportionate ratios of protein to ligand are involved. […] Generally, an IC50 correlates well with a K D when a small molecule competes for binding with a natural substrate for a target protein.
The resulting mixture was centrifuged at 12,000 x RPM 10 min prior to use. […] The samples were run again at 30- and 45 min. Detection of the protein was performed using the blue detection channel with excitation power set to 100% and MST set to high allowing 3 s prior to MST on to check for initial fluorescence differences, 35 s for thermophoresis, and 3 s for regeneration after MST off. Analysis was performed using M.O. Affinity Analysis Software with difference between initial fluorescence measured in the first 5 s as compared with thermophoresis at 30 s at 16 different analyte concentrations ranging from 100 μM to 100 zM and exported into Graphpad Prism v.8 using a Log inhibitor versus response for parameter fit.

[2] = system: p-IRF3 in HEK293S cells (hSTING pathway); test: Phospho-IRF3 Western blot in HEK293S cells with diABZI3; assay type: cell-based, human; conditions: 100 fM compound, 100 nM diABZI3, preliminary
Procedure: HEK293T cells transfected with hSTINGWT cells were seeded in a 6-well plate in DMEM
(supplemented with 10% heat-inactivated fetal bovine serum, 1X Corning Penicillin-Streptomycin
solution and 0.01mg/mL Blasticidin). Upon reaching ~80% confluence, cells were pretreated with
varying concentrations of CXL in FBS-free DMEM for 2 hours. This was followed by treatment
with diABZI3 (100nM) for 1 hour. The cells were scraped, harvested by centrifugation at 1000 x g
for 3 mins. The resulting pellet is resuspended in 1X PBS with 1X Halt protease & phosphatase
inhibitor and 1% NP-40. Cell lysis was performed by probe sonication. The cell lysate is further
denatured in 1X SDS loading buffer by boiling for 10 mins and separated by SDS-PAGE (4-20%
gel). The separated proteins were electrically transferred to a PVDF membranes separately,
which was probed with primary (α-pIRF3, α-IRF3 & α-STING) and secondary (goat anti-rabbit IR
dye 680 & goat anti-mouse IR dye 800CW) antibodies. The blots were visualized using a LICOR
Image Analyzer. All the experiments were performed at least in duplicate.

SUMO-hSTING CTD [3] = biological target: T2, SUMO-hSTING CTD (Homo sapiens, UniProt Q86WV6, H232R); test: Dynamic light scattering of STING oligomerization; conditions: 50 nM STING CTD; S-isomer up to 500 fM; reviewer's reading
T2 sequence (Q86WV6 155-343 H232R): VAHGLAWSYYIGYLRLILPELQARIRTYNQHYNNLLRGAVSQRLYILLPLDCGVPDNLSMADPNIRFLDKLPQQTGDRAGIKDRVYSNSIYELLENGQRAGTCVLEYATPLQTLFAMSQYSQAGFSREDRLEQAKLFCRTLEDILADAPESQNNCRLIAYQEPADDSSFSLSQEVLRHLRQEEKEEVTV
Procedure: (B) DLS was performed for 2 h (n = 960 measurements) with 50 nM STING exposed to analytes. […] Blue blocks indicate size counts as a percentage to overall mass over selected mass ranges. […] Measurements were made using a Malvern Zetasizer Nano ZS set to 40 measurements at 1 s/measurement and 24 runs.

[4] = system: IFN-β expression in HEK293 cells; test: HEK293 real-time qPCR for IFN-β; conditions: 4 μM 2′,3′-cGAMP 3 h, positive control
Procedure: IFN-β expression levels were measured using real-time qPCR.
HEK293 cells were seeded at 700,000 cells per 60 mm plate confluency and treated 36 h later.

His-hSTING CTD = biological target: T3, His-hSTING CTD (Homo sapiens, UniProt Q86WV6, H232R); test: Surface plasmon resonance; assay type: binding; conditions: read-out: KD (SPR)
T3 construct: purchased Invivogen (USA) or Cayman Chemicals (USA)
T3 sequence (Q86WV6 153-340 H232R): as the sequence (Q86WV6 153-340 H232R) above
Procedure: SPR was employed for binding measurements using the His-tagged hSTING^WT CDN domain. A GE Healthcare Biacore T200 was equipped with a Ni-NTA chip. […] The sensorgrams were analyzed using Biacore T200 Software 3.0 and steady state was measured at 4 s before injection stop, exported into Graphpad, and fit versus concentration using a one site specific binding model to calculate the apparent equilibrium dissociation constant (K D). Where appropriate, kinetics were measured using a 1:1 Langmuir binding model with R max set to local to obtain the association rate (K on), dissociation (K off)

STING = system: STING; design: method as in Ergun et al.; conditions: ref Ergun et al., cited from earlier work
STING CTD = biological target: STING CTD; design: method as in not given; conditions: ref not given; read-out: KD previously reported (ITC); cited from earlier work
SUMO-hSTING CTD [5] = biological target: T2, SUMO-hSTING CTD; test: Isothermal titration calorimetry; assay type: binding; design: human STING (amino acid 155–343) was synthesized and subcloned into pET28a vector; made in house; host or cells: E. coli BL21(DE3)
Excerpt: In order to further explore the interaction between CXL and hSTING CTD, we employed Isothermal calorimetry (ITC) to measure the heat evolved accompanying CXL’s effect on SUMO-hSTING^WT CTD. […] In Figure A, we show the ITC data we obtained. […]. […] In Figure B, we also find that the binding isotherm is far from steady state or equilibrium, and thus, we could not obtain reliable thermodynamic parameters. Nonetheless, a significant amount of heat was released in the process of CXL interacting with the hSTING CTD. On the other hand, we were most interested in ITC measurements taken at femtomolar concentrations, given the biophysical experiments and in cellulo studies already described. Initial experiments treating the hSTING CTD with femtomolar concentrations of CXL were unsuccessful, likely due to the insensitivity of the instrument. […]. MicroCal ITC200 instrument (Malvern Pananalytical) was used to assess STING and CXL interactions. Both recombinantly purified STING domains (residues 155–343) containing a SUMO tag and CXL were buffer-exchanged and made in the same buffer composition, respectively, to avoid buffer mismatch. The same buffer cocktail was used in all ITC experiments, containing 25 mM HEPES (pH, 7.4), 150 mM NaCl, 5% glycerol, 0.5 mM TCEP, and 5% DMSO. STING protein from −80 °C aliquots was spun down at 12,000 RPM for 5–10 min before each run to remove any aggregates, diluted into the ITC buffer above (either as 40 μM STING alone or as 40 μM STING plus 20 μM 2,3-cGAMP), and loaded into the cell. CXL at various concentrations for different experiments was loaded into the syringe (Hamilton). For the control and reference, an ITC buffer devoid of CXL was used. ITC experiments were conducted at 25 °C using an initial 0.4 μL injection and 19 subsequent injections of 2 μL each at 150 s intervals. Heat of dilution (differential power) of the 19 injections resulting from the binding event was fitted into the nonlinear least-squares equation incorporated in the MicroCal ITC200 analysis software. The K D and other thermodynamic parameters were derived from curve fitting using MicroCal software.

[6] = biological target: the molecule itself; test: dynamic light scattering; 50 nM STING with 50 nM 2′,3′-cGAMP and a titrated range of analyte (CXL, CXN, H-151), HBS-P pH 7.4, 2 h
[7] = 500 μM c-diGMP to 40 μM hSTING CTD

Molecule: Cc1c(Cl)cccc1Nc1ncccc1C(=O)OC[C@H](O)CO (single isomer, unassigned) [R-enantiomer, R-clonixeril]
- Activity in MST assay [1]: subfemtomolar activity
- Effect on p-IRF3 [2]: agonistic
- Effect of enantiomers on protein aggregate size (SUMO-hSTING CTD [3]): slightly less potent

Molecule: Cc1c(Cl)cccc1Nc1ncccc1C(=O)OC[C@@H](O)CO (single isomer, unassigned) [S-enantiomer, S-clonixeril]
- Activity in MST assay [1]: an effect at higher concentrations
- Effect on p-IRF3 [2]: no effect
- Effect of enantiomers on protein aggregate size (SUMO-hSTING CTD [3]): no effect

Molecule: Nc1nc2c(ncn2C2OC3COP(=O)(O)OC4C(COP(=O)(O)OC2C3O)OC(n2cnc3c(N)ncnc32)C4O)c(=O)[nH]1 (stereo not drawn) [2′,3′-cGAMP, cyclic guanosine-(2′→5′)-monophosphate-adenosine-(3′→5′)-monophosphate, reference compound]
- Induction of IFN-β production [4]: 7.4 fold

Molecule: Cc1c(Cl)cccc1Nc1ncccc1C(=O)OCCCCOC(=O)c1cccnc1Nc1cccc(Cl)c1C [Compound 14]
- Activity in MST assay [1]: quite active

Molecule: Cc1cccc(Nc2ccccc2C(=O)OCC(O)CO)c1C (stereo not drawn) [MFE, mefenamic acid glycerol ester]
- KD (Table S1, Thermophoresis) ([1]; +50 nM 23cGAMP): No shift
- Activity in MST assay [1]: no indication of activity at any concentration below 1 μM

Molecule: Nc1nc2c(ncn2C2OC3COP(=O)(O)OC4C(COP(=O)(O)OC3C2O)OC(n2cnc3c(=O)[nH]c(N)nc32)C4O)c(=O)[nH]1 (stereo not drawn) [c-diGMP, cyclic di-GMP, reference compound]
- Kd (His-hSTING CTD): 4.78 ± 1.65 µM
- Hill coefficient for STING activation (STING): 2.6
- IC50 (STING; read-out: IC50 for inhibition of the action of 2′,3′-cGAMP): ~0.8 µM
- Kd (STING CTD): 3.7 µM
- ΔH0 (ITC) (SUMO-hSTING CTD [5]; [7]): -24.6 kcal/mol
- ΔS0 (ITC) (SUMO-hSTING CTD [5]; [7]): −56.5 cal/mol/deg
- Kd (SUMO-hSTING CTD [5]; read-out: KD (ITC)): 2.17 µM

B1: His-SUMO-TEV-hSTING CTD (domain or fragment, human, UniProt Q86WV6 155-343, looked up)
chain: VAHGLAWSYYIGYLRLILPELQARIRTYNQHYNNLLRGAVSQRLYILLPLDCGVPDNLSMADPNIRFLDKLPQQTGDHAGIKDRVYSNSIYELLENGQRAGTCVLEYATPLQTLFAMSQYSQAGFSREDRLEQAKLFCRTLEDILADAPESQNNCRLIAYQEPADDSSFSLSQEVLRHLRQEEKEEVTV
notes: human STING (stimulator of interferon genes), C-terminal domain, amino acids 155-343, wild type (R232) allele; a TEV site lies between SUMO and STING by the construct's name; Synthetic gene in pET28a; also called SUMO-hSTING CTD; SUMO-hSTING^WT CTD; source: E. coli BL21(DE3), purified (Ni-NTA); not shown: His6, N-terminal, kept; SUMO, N-terminal, kept
- binding result [6]: binds
